The source of these data is PubChem BioAssay (NCI).

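Dose response: 5 concentrations. Exposure: 48 h. Format: 96-well plates. Endpoint: linear interpolation; highest concentration if not reached. GI50: concentration for 50% inhibition of growth. TGI: concentration producing complete growth inhibition.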

Common to all, as to assay: NCI tumour cell line growth inhibition, 48 h
For assay [1], the system named is A498 renal.
The test system of assay [2] is SK-OV-3 ovarian.
In assay [3] the test system is HCC-2998 colon.
Assay [4] relates to UACC-257 melanoma.
The test system of assay [5] is SF-539 CNS.
Assay [6] has as its system SF-295 CNS.
Assay [7] concerns NCI-H460 lung.
Assay [8] has as its system HT29 colon.
For assay [9], the system named is OVCAR-4 ovarian.
The subject of assay [10] is IGROV1 ovarian.

With `Fc1cccc(COc2ccc(Nc3ncnc4cc(-c5ccc[nH]5)sc34)cc2Cl)c1`, the GI50 was 2.27 µM in assay [1]; 2.41 µM in assay [2]; 0.246 µM in assay [3]; 9.38 µM in assay [4]; 0.931 µM in [5]; 0.548 µM in assay [6]. Moreover, the GI50 in [7] was 2.09 µM; in assay [8], 7.47 µM; in assay [9], 0.0847 µM; in [10] it was 0.406 µM. The TGI in [1] was over 17.7 µM; in assay [2], 20.1 µM; in [3], 19.2 µM; in [4], over 25 µM; in [5] it was 4.81 µM; in assay [6], over 19.9 µM. Besides, the TGI in assay [7] is over 15.3 µM; in assay [8] it was over 20.6 µM; in assay [9], 3.84 µM; in assay [10], 11.7 µM.
On to `COc1ccc(O)c(C#N)c1C#N`, for which the TGI in assay [1], in assay [2], in [3], in assay [4], in assay [5] and in [6] was over 100 µM each time. The TGI in assay [7], in assay [8], in assay [9] and in [10] was over 100 µM throughout.
In the case of `COc1cccc(C2c3cc4c(cc3OC(O)(CO)C2C(=O)O)OCO4)c1` (centres undefined) (tested in a mixture with another compound), the TGI in assay [1], in assay [2], in assay [3], in assay [4], in assay [5] and in [6] was over 100 µM in each case. The TGI is 49 µM in assay [7], over 100 µM in assay [8], over 100 µM in assay [9] and over 100 µM in assay [10].
Consider `S=c1[nH]c2ccc(Br)cc2c(=S)n1-c1ccccc1`, for which the TGI worked out at 98.4 µM in [1]; 85.6 µM in assay [2]; 40.8 µM in assay [3]; 36.9 µM in [4]; 44.4 µM in [5]; 55.7 µM in [6]. The TGI in assay [7] was 45.2 µM; in assay [8], 47.7 µM; in [9] it was over 100 µM; in assay [10], 89.1 µM.
In the case of `CC1OC2CC(=O)OC2C2=C1C(=O)c1c(O)c3c(c(O)c1C2=O)C1CC(O)C3(O)C(C)O1` (centres undefined), the GI50 is 1.65 µM in assay [1]; 3.24 µM in assay [2]; 0.442 µM in assay [3]; 0.212 µM in [4]; 0.458 µM in [5]; 0.975 µM in [6]. Further, the GI50 in assay [7] was 0.784 µM; in assay [8], 0.229 µM; in assay [9] it was 0.381 µM; in [10], 0.329 µM. Also, the TGI in assay [1] is 3.42 µM; in [2], 11.1 µM; in assay [3], 1.67 µM; in [4], 0.525 µM; in [5], 1.37 µM; in assay [6] it was 3.29 µM. Besides, the TGI in [7] was determined as 3.14 µM; in assay [8], 1.14 µM; in [9] it was 1.23 µM; in assay [10] it was 1.7 µM.
Consider `CC(=O)[O-].CC(=O)[O-].[NH2-].[Pt+2].c1ccc2cnccc2c1`, for which the GI50 in assay [1] is over 100 µM; in assay [2] it was over 100 µM; in [3], over 100 µM; in assay [5] it was 4.83 µM; in [6], over 100 µM; in [7], 26.2 µM. For the same molecule, the GI50 in assay [8] was 24.5 µM; in assay [9], 22.3 µM; in [10], 24.6 µM. Moreover, the TGI in assay [1] was over 100 µM; in [2] it was over 100 µM; in assay [3], over 100 µM; in [4], 6.49 µM; in assay [5], 43.8 µM; in assay [6] it was over 100 µM. The TGI in [7], in assay [8], in assay [9] and in [10] was over 100 µM each time.
For `Cn1ccnc1C(=O)/C=C/c1ccc(CC(=O)Nc2ccccc2)cc1`, the GI50 in assay [1] is 6.08 µM; in assay [2], 9.3 µM; in assay [3] it was 4.42 µM; in [4], 6.98 µM; in assay [5], 2.43 µM; in assay [6], 5.44 µM. The GI50 was 2.32 µM in [7], 2.4 µM in [8], 4.12 µM in [9] and 2.11 µM in assay [10]. Besides, the TGI in [1] is 14.5 µM; in [2] it was over 25 µM; in assay [3], 8.96 µM; in [4], 21.1 µM; in [5], 7.52 µM; in [6], 16.5 µM. Moreover, the TGI in [7] was 9.52 µM; in assay [8], 6.82 µM; in assay [9], over 25 µM; in [10], 14.5 µM.
Take `COc1ccc(NC(=O)c2cc(OC)c(OC)c(OC)c2)cc1`: the TGI in assay [1], in [2], in [3], in [4], in [5] and in [6] was over 100 µM each time. For the same molecule, the TGI in assay [7], in [8], in [9] and in assay [10] was over 100 µM throughout.
